Measurements from US20260364181A1, “AKR1C3 Targeted Heterobifunctional Small Molecule Proteolysis Targeting Chimeras” (BOARD OF REGENTS OF THE UNIVERSITY OF NEBRASKA, priority 2022, published 2026).

Target: T1, AKR1C3 (Homo sapiens, UniProt P42330)
T1 sequence (P42330 1-323): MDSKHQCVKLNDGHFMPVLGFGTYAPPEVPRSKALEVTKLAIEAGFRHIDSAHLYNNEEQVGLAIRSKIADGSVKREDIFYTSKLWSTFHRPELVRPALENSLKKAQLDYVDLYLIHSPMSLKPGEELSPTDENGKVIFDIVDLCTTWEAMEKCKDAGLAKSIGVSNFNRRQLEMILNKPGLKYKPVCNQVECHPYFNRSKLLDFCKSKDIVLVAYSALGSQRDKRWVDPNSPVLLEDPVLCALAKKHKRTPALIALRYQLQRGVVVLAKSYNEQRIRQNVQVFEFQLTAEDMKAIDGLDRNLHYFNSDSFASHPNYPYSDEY
Experiment: AKR1C3 protein degradation in 22Rv1 prostate cancer cells (Western blot)
Format: cell-based
Parameters: 22Rv1 prostate cancer cells that express high levels of AKR1C3; host or cells: 22Rv1
Method: Protein Expression via Western Blot. 22Rv1 cells were seeded in a 6-well plate and incubated overnight. Next day, the cells were treated with varying concentrations of 6 (1 and 10 μM) and 5 (0.5, 1, 10, 50, 100, 250, and 500 nM; 1, 10, and 50 μM) for 24 hours and 5 (1 and 10 nM) at different time points (0, 2, 4, 6, 12, 16, 24, 48, and 72 h). Whole cell lysates were extracted in RIPA lysis buffer containing protease inhibitor and EDTA (Fisher Scientific, PI78440). Protein concentrations in each sample was estimated following BCA assay (Pierce™ BCA protein assay kit, Fisher Scientific, PI23227) as per the manufacturer's protocol. Proteins were standardized using RIPA lysis buffer with Laemelli SDS sample buffer (Thermo Scientific, AAJ61337AC) and heated at 1000C for 15 minutes. The proteins were resolved on a 4-12% premade gel (Invitrogen, NW04120BOX) at 60-90 V in 20× Bolt™ MES SDS running buffer (Fisher Scientific, B000202) and transferred onto a nitrocellulose membrane (Invitrogen, IB23001) using iBlot 2. The membranes were blocked with 2.5% non-fat dry milk (Bio-Rad, 1706404) for 1 h, and the membrane was incubated overnight on a rocking platform at 4 °C with the desired primary antibodies against AKR1C3 (mouse mAb, 1:200, Sigma, A6229), AKR1C1/C2 (rabbit mAb, 1:500, Abcam, ab179448), ARv7 (rabbit mAb, 1:500, Abcam, ab198394) and actin (mouse mAb, 1:1,000, ThermoFisher, MA5-11869). The membranes were washed three times, 10 minutes each, with 1×Tris-buffered saline (TBST, Bio-Rad, 1706435) in 0.1% Tween 20, on a rocking platform wherein they were incubated with rabbit anti-mouse IgG (ThermoFisher, 31450) or goat anti-rabbit IgG (Jackson ImmunoResearch, 111-035-003) secondary antibody (1:1,000) horseradish peroxidase conjugate for 1 hour. The membranes were again washed three times with 1×TBST, upon which they were exposed to LI-COR WesternSure PREMIUM chemiluminescent substrate (Fisher Scientific, 50-489-552) and developed in a dark room with Konica Minolta equipment. Bands were quantified by densitometry using ImageJ software and fold change in AKR1C3, AKR1C1/C2, and ARv7 protein expression was determined based on actin controls. […]
The AKR1C3 degradation effect of PROTAC 5 was screened across a range of concentrations to identify a suitable treatment protocol. 22Rv1 cells were treated with increasing concentrations of […], DMSO or lenalidomide 6 at 1 μM and 10 μM for 24 hours, and the degradation profile was determined by Western blot analysis with antibody for AKR1C3.

In the case of O=C(O)/C=C/c1cc(C(=O)NCc2ccc(OCc3cn(CCOCCOCC(=O)Nc4cccc5c4CN(C4CCC(=O)NC4=O)C5=O)nn3)cc2)cc(-c2ccccc2)c1 (centres unmarked) [Compound IA, (E)-3-(5-((4-((1-(2-(2-(2-((2-(2,6-dioxopiperidin-3-yl)-1-oxoisoindolin-4-yl)amino)-2-oxoethoxy)ethoxy)ethyl)-1H-1,2,3-triazol-4-yl)methoxy)benzyl)carbamoyl)-[1,1 ? biphenyl]-3-yl)acrylic acid], the “mean AKR1C3 degradation” value (0.5 nM, 24 h, in words) is reported as “no degradation”, the “time course of AKR1C3 levels” value (1 nM, 24 through 72 hours post-treatment, in words) is reported as “time-dependent decrease in AKR1C3 levels” and the “onset of decrease in AKR1C3 levels” value (1 nM, post-treatment) is reported as 24 h. The “degradation of AKR1C3 (in words)” value (10 nM, 0-72 h) was “significant degradation”, the “AKR1C3 degradation after proteasome inhibitor pretreatment” value (10 nM, 2 hour pretreatment with MG132 (3 μM), in words) was “effectively blocked” and the AKR1C3 protein expression (10 nM, 4 hours of treatment, in words) was “effectively reduced AKR1C3 protein expression”. For the same compound, the “AKR1C3 degradation compared with Compound 3” value (10 nM, 72 hour incubation, in words) was “outperformed Compound 3”, the “onset of AKR1C3 degradation” value (10 nM, post-treatment) was 4 h and the AKR1C3 expression (1-50 μM, 24 h, in words) was “increased AKR1C3 expression”. The Dmax at 0.01 µM (22Rv1, 10 nM, 72 hours, read-out: maximal degradation of AKR1C3) was about 75% and the AKR1C3 expression (100-500 nM, 24 h, in words) was “increased AKR1C3 expression”.
